Data on eleven molecules can be found in ChEMBL document CHEMBL5550184, “Structure-activity relationships of middle-size cyclic peptides, KRAS inhibitors derived from an mRNA display” (Bioorg Med Chem, 2024).

A word on the IC50: it is the concentration that gives 50% inhibition. Broadly, the Papp is a coefficient for how fast a substance crosses the barrier. The Kd is the free concentration of one partner at which half of the binding sites on the other are occupied at equilibrium, for simple one-to-one binding. Read a high Kd as lower affinity.

The nature of series [1]: Inhibition of biotin-tagged KRAS G12D mutant (unknown origin) to recombinant His-tagged SOS1 (unknown origin) protein-protein interaction incubated for 120 mins by AlphaLISA method. Also noted: species or system Homo sapiens. For orientation: Alpha assays give light when donor and acceptor beads are brought close together.
In a further series the test system is ASPC1. In words: Cytotoxicity against human AsPC1 cells assessed as reduction in cell viability incubated for 7 days by CellTiterGlo Luminescent Cell Viability Assay. The format is functional, cell-based. The note with it: ASPC1, 168 h.
Series [2] in a line: Apparent permeability in human Caco-2 cells incubated for 180 mins by LC-MS/MS method. The format is ADME, cell-based. For orientation: Caco-2 cells form a polarised layer with tight junctions and transporters.
A further series has as its target GTPase KRas (Homo sapiens, UniProt P01116, G12D). The experiment in a line: Binding affinity to biotinylated KRAS G12D mutant (unknown origin) incubated for 120 mins by SPR analysis. For orientation: In SPR one partner is held on a chip, and binding of the other changes the refractive index at the surface.

Starred links: 1 amine or outer side, 2 acyl side, 3 side chain; linkers in the order of their positions; H or OH if unused. Positions of bridges follow the written chain, without caps; N, C: chain ends. Non-standard residues stand in square brackets, D forms with d. Residues, ends and D or L forms follow the SMILES beside them. *: point of attachment. hPhe(3-Cl-4-CF3) = N[C@@H](CCc1ccc(C(F)(F)F)c(Cl)c1)C(=O)O; X2 = CN([C@@H](CC(=O)[*:2])C(=O)n1cccc1)[*:1]; NMePhe(4-Cl) = CN[C@@H](Cc1ccc(Cl)cc1)C(=O)O; Phe(3-Cl) = N[C@@H](Cc1cccc(Cl)c1)C(=O)O; NMeGly(cPent) = CN[C@H](C(=O)O)C1CCCC1; NMeAla(cPr) = CN[C@@H](CC1CC1)C(=O)O; NMeGly(cBu) = CN[C@H](C(=O)O)C1CCC1; NMeCha = CN[C@@H](CC1CCCCC1)C(=O)O; NMeGly(cPr) = CN[C@H](C(=O)O)C1CC1; NMeChg = CN[C@H](C(=O)O)C1CCCCC1; NMeF = CN[C@@H](Cc1ccccc1)C(=O)O; NMeD = CN[C@@H](CC(=O)O)C(=O)O; NMeL = CN[C@@H](CC(C)C)C(=O)O; NMeV = CN[C@H](C(=O)O)C(C)C; Azetidin(1-yl) = C1CN(*)C1; NMeA = CN[C@@H](C)C(=O)O; Piperidide = C1CCN(*)CC1; Ac5c = NC1(C(=O)O)CCCC1; Aze = O=C(O)[C@@H]1CCN1; Sar = CNCC(=O)O

Sequence of GTPase KRas (P01116 whole entry G12D): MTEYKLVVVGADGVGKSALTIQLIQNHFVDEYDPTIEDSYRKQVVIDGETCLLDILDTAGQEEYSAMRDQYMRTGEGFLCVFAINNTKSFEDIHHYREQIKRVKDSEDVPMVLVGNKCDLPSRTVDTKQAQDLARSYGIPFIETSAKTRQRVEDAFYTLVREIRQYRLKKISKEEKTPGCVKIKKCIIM

As for `CC[C@H](C)[C@@H]1NC(=O)[C@H](CC2CC2)N(C)C(=O)C[C@@H](C(=O)N2CCCCC2)N(C)C(=O)[C@H](C(C)C)N(C)C(=O)C2(CCCC2)NC(=O)[C@@H]2CCCN2C(=O)[C@H](CCc2ccc(C(F)(F)F)c(Cl)c2)NC(=O)CN(C)C(=O)[C@H](CC2CCCCC2)N(C)C(=O)CN(C)C(=O)CN(C)C1=O` ([NMeAla(cPr)]I[Sar][Sar][NMeCha][Sar][hPhe(3-Cl-4-CF3)]P[Ac5c][NMeV][NMeD]-Piperidide; lactam N-11), the figures for the IC50 (in series [1]; in the series on ASPC1) were 10 nM and 650 nM, respectively. Moreover, in series [2], the Papp at 3 h is 0.34 ×10⁻⁶ cm/s.

For `CC[C@H](C)[C@@H]1NC(=O)[C@H](CC(C)C)N(C)C(=O)C[C@@H](C(=O)N2CCCCC2)N(C)C(=O)[C@H](C(C)C)N(C)C(=O)C2(CCCC2)NC(=O)[C@@H]2CCCN2C(=O)[C@H](CCc2ccc(C(F)(F)F)c(Cl)c2)NC(=O)CN(C)C(=O)[C@H](CC2CCCCC2)N(C)C(=O)[C@@H]2CCN2C(=O)[C@H](C)N(C)C1=O` ([NMeL]I[NMeA][Aze][NMeCha][Sar][hPhe(3-Cl-4-CF3)]P[Ac5c][NMeV][NMeD]-Piperidide; lactam N-11), the results for the IC50 (in series [1]; with ASPC1) were 4.1 nM and 110 nM, respectively. The Papp at 3 h in series [2] was 1.3 ×10⁻⁶ cm/s.

Take `CC[C@H](C)[C@@H]1NC(=O)[C@H](CC(C)C)N(C)C(=O)C[C@@H](C(=O)N(C)C)N(C)C(=O)[C@H](C2CCCC2)N(C)C(=O)C2(CCCC2)NC(=O)[C@@H]2CCCN2C(=O)[C@H](CCc2ccc(C(F)(F)F)c(Cl)c2)NC(=O)CN(C)C(=O)[C@H](CC2CCCCC2)N(C)C(=O)[C@@H]2CCN2C(=O)[C@H](C)N(C)C1=O` ([NMeL]I[NMeA][Aze][NMeCha][Sar][hPhe(3-Cl-4-CF3)]P[Ac5c][NMeGly(cPent)][NMeD]-NMe2; lactam N-11): the IC50 is less than 2 nM in series [1] and 5.5 nM with ASPC1. Binding on GTPase KRas was put at a Kd of 0.16 nM. In series [2], the Papp at 3 h was determined as 2.61 ×10⁻⁶ cm/s.

In the case of `CC[C@H](C)[C@@H]1NC(=O)[C@H](CC2CCCCC2)N(C)C(=O)C[C@@H](C(=O)N2CCCCC2)N(C)C(=O)[C@H](C(C)C)N(C)C(=O)C2(CCCC2)NC(=O)[C@@H]2CCCN2C(=O)[C@H](CCc2ccc(C(F)(F)F)c(Cl)c2)NC(=O)CN(C)C(=O)[C@H](CC2CCCCC2)N(C)C(=O)CN(C)C(=O)CN(C)C1=O` ([NMeCha]I[Sar][Sar][NMeCha][Sar][hPhe(3-Cl-4-CF3)]P[Ac5c][NMeV][NMeD]-Piperidide; lactam N-11), the IC50 in series [1] came to 25 nM; in the series on ASPC1 it was 950 nM. The Papp at 3 h in series [2] came out at 0.33 ×10⁻⁶ cm/s.

As for `CC[C@H](C)[C@@H]1NC(=O)[C@H](CC(C)C)N(C)C(=O)C[C@@H](C(=O)N2CCC2)N(C)C(=O)[C@H](C2CCCC2)N(C)C(=O)C2(CCCC2)NC(=O)[C@@H]2CCCN2C(=O)[C@H](CCc2ccc(C(F)(F)F)c(Cl)c2)NC(=O)CN(C)C(=O)[C@H](CC2CCCCC2)N(C)C(=O)[C@@H]2CCN2C(=O)[C@H](C)N(C)C1=O` ([NMeL]I[NMeA][Aze][NMeCha][Sar][hPhe(3-Cl-4-CF3)]P[Ac5c][NMeGly(cPent)][NMeD]-{Azetidin(1-yl)}; lactam N-11), the IC50 in series [1] was less than 2 nM; in the series on ASPC1 it was 13 nM. For the same molecule, binding on GTPase KRas was put at a Kd of 0.19 nM. For the same molecule, in series [2], the Papp at 3 h came to 2.66 ×10⁻⁶ cm/s.

In the case of `CC[C@H](C)[C@@H]1NC(=O)[C@H](CC(C)C)N(C)C(=O)C[C@@H](C(=O)N2CCCCC2)N(C)C(=O)[C@H](C(C)C)N(C)C(=O)C2(CCCC2)NC(=O)[C@@H]2CCCN2C(=O)[C@H](CCc2ccc(C(F)(F)F)c(Cl)c2)NC(=O)CN(C)C(=O)[C@H](CC2CCCCC2)N(C)C(=O)CN(C)C(=O)CN(C)C1=O` ([NMeL]I[Sar][Sar][NMeCha][Sar][hPhe(3-Cl-4-CF3)]P[Ac5c][NMeV][NMeD]-Piperidide; lactam N-11), the IC50 in series [1] was 6 nM; in the series on ASPC1, 120 nM. Besides, the Papp at 3 h in series [2] is 1.12 ×10⁻⁶ cm/s.

Consider `CC[C@H](C)[C@@H]1NC(=O)[C@H](C2CCCCC2)N(C)C(=O)C[C@@H](C(=O)N2CCCCC2)N(C)C(=O)[C@H](C(C)C)N(C)C(=O)C2(CCCC2)NC(=O)[C@@H]2CCCN2C(=O)[C@H](CCc2ccc(C(F)(F)F)c(Cl)c2)NC(=O)CN(C)C(=O)[C@H](CC2CCCCC2)N(C)C(=O)CN(C)C(=O)CN(C)C1=O` ([NMeChg]I[Sar][Sar][NMeCha][Sar][hPhe(3-Cl-4-CF3)]P[Ac5c][NMeV][NMeD]-Piperidide; lactam N-11), for which the results for the IC50 (in series [1]; in the series on ASPC1) were 7.8 nM and 650 nM, respectively. Moreover, in series [2], the Papp at 3 h was found to be 0.37 ×10⁻⁶ cm/s.

Consider `CC[C@H](C)[C@@H]1NC(=O)[C@H](C2CCCC2)N(C)C(=O)C[C@@H](C(=O)N2CCCCC2)N(C)C(=O)[C@H](C(C)C)N(C)C(=O)C2(CCCC2)NC(=O)[C@@H]2CCCN2C(=O)[C@H](CCc2ccc(C(F)(F)F)c(Cl)c2)NC(=O)CN(C)C(=O)[C@H](CC2CCCCC2)N(C)C(=O)CN(C)C(=O)CN(C)C1=O` ([NMeGly(cPent)]I[Sar][Sar][NMeCha][Sar][hPhe(3-Cl-4-CF3)]P[Ac5c][NMeV][NMeD]-Piperidide; lactam N-11), for which the IC50 amounted to 4.3 nM in series [1] and 210 nM in the series on ASPC1. Moreover, the Papp at 3 h in series [2] is 0.75 ×10⁻⁶ cm/s.

In the case of `CC[C@H](C)[C@@H]1NC(=O)[C@H](C)N(C)C(=O)C[C@@H](C(=O)n2cccc2)N(C)C(=O)[C@H](CC(C)C)N(C)C(=O)[C@H](Cc2ccccc2)N(C)C(=O)[C@H](Cc2ccccc2)NC(=O)[C@H](Cc2cccc(Cl)c2)NC(=O)CN(C)C(=O)[C@H](Cc2ccc(Cl)cc2)N(C)C(=O)CN(C)C(=O)CN(C)C1=O` (cyclo(F[NMeF][NMeL][X2][NMeA]I[Sar][Sar][NMePhe(4-Cl)][Sar][Phe(3-Cl)])), the IC50 in series [1] was 36 nM; in the series with ASPC1, greater than 20000 nM. In addition, the Papp at 3 h in series [2] came to 0.87 ×10⁻⁶ cm/s.

Turning to `CC[C@H](C)[C@@H]1NC(=O)[C@H](C2CCC2)N(C)C(=O)C[C@@H](C(=O)N2CCCCC2)N(C)C(=O)[C@H](C(C)C)N(C)C(=O)C2(CCCC2)NC(=O)[C@@H]2CCCN2C(=O)[C@H](CCc2ccc(C(F)(F)F)c(Cl)c2)NC(=O)CN(C)C(=O)[C@H](CC2CCCCC2)N(C)C(=O)CN(C)C(=O)CN(C)C1=O` ([NMeGly(cBu)]I[Sar][Sar][NMeCha][Sar][hPhe(3-Cl-4-CF3)]P[Ac5c][NMeV][NMeD]-Piperidide; lactam N-11), the IC50 stood at 2.8 nM in series [1] and 130 nM in the series with ASPC1. Moreover, in series [2], the Papp at 3 h turned out to be 0.91 ×10⁻⁶ cm/s.

For `CC[C@H](C)[C@@H]1NC(=O)[C@H](CC(C)C)N(C)C(=O)C[C@@H](C(=O)N2CCCCC2)N(C)C(=O)[C@H](C2CC2)N(C)C(=O)C2(CCCC2)NC(=O)[C@@H]2CCCN2C(=O)[C@H](CCc2ccc(C(F)(F)F)c(Cl)c2)NC(=O)CN(C)C(=O)[C@H](CC2CCCCC2)N(C)C(=O)[C@@H]2CCN2C(=O)[C@H](C)N(C)C1=O` ([NMeL]I[NMeA][Aze][NMeCha][Sar][hPhe(3-Cl-4-CF3)]P[Ac5c][NMeGly(cPr)][NMeD]-Piperidide; lactam N-11), the IC50 came out at 50 nM in series [1] and 1100 nM in the series on ASPC1. The Papp at 3 h in series [2] is 1.36 ×10⁻⁶ cm/s.
